Results from patent US20080216197A1, “Polypeptide Having Function Related to Pyridoxine Biosynthesis, Polynucleotide Coding the Polypeptide, and Those Use” (Genomine, Inc., priority 2005, published 2008).
Structures can show the parent of a compound that is named as a salt.

Key:
Arabidopsis thaliana = assay: PPT treatment of T2 plants grown in Petri dishes (segregation check); assay type: in vivo; details: 12.5 mg/L PPT
[1] = tested on: mutant Arabidopsis thaliana; assay: Phenotype recovery of mutant T2 plants on pyridoxine-supplemented MS medium; assay type: in vivo; details: 2.5 mg/L pyridoxine-HCl in MS medium, 30 seeds/Petri dish, slight etiolation observed, FIG. 7
Procedure: The analysis of the AtPDX5 domain led to the inference that the AtPDX5 gene might have an enzymatic function involved in the pyridoxine biosynthesis pathway. To examine this, T2 plants of the mutant Arabidopsis thaliana were cultured in Petri dishes containing a 2.5 mg/L pyridoxine-HCl (Sigma, USA)-supplemented MS medium (30 seeds/Petri dish). […] In addition, the etiolation of the mutant plants was believed to be attributed to a low content of pyridoxine in the medium. Based on the fact that the phenotype recovery was induced by the addition of pyridoxine, the AtPDX5 gene is concluded to be directly responsible for pyridoxine biosynthesis. As described hereinbefore, T2 plants of the mutant Arabidopsis thaliana have the phenotype properties of significant growth delay, etiolation throughout leaves, and death in an early stage, and the mutant Arabidopsis thaliana can have the same phenotype as that of the wild-type in the presence of pyridoxine.

Compound	effect on the five plants having a wild-type phenotype (Arabidopsis thaliana)	effect on the other 25 plants (etiolation and retarded growth phenotype) (Arabidopsis thaliana)	phenotype (growth delay) of the mutant versus the wild-type [1]
CP(=O)(O)CC[C@H](N)C(=O)O [PPT, phosphinothricin]	converted to a fatal phenotype	remained unchanged	
Cc1ncc(CO)c(CO)c1O [pyridoxine-HCl, 2-methyl-3-hydroxy-4,5-di(hydroxymethyl)pyridine]			no significant difference in phenotype
